Experimental data as given in patent US8895599B2, “Lipoprotein lipase-activating compositions comprising benzene derivates” (Otsuka Pharmaceutical Factory, Inc., priority 2008, dated 2014).

Key:
human LPL mRNA = experiment: Test for increase in LPL mRNA expression (luciferase assay, HTB-92/p387/p383 cell line); type: cell-based; conditions: 120 h, HTB-92/p387/p383 cells, 5 days; for maximal fold induction: Max. Ind. Value=Lt/Lc, maximum luciferase activity over control; for EC50: concentration that increases LPL mRNA expression over the control by 50%
From the text: Pharmacological Test 1 Test for Increase in LPL mRNA Expression
A luciferase assay was employed to simply and quickly detect an increase in human LPL mRNA. The principle of the assay is as follows:
Luciferase emits light when reacted with luciferine (substrate). The expression of LPL mRNA is controlled by 5′-UTR and 3′-UTR (promoter regions) of the LPL gene. By introducing the promoter regions of the LPL gene into a commercially available plasmid (for example, that produced by Clonetics Corp.) to produce a plasmid (reporter plasmid) that stably expresses luciferase in human cells, such a plasmid expresses luciferase only under conditions in which LPL mRNA can increase. Therefore, when the substrate is introduced to the expression system and the amount of luciferase expression (luciferase activity) is quantified as the extent of chemiluminescence, the amount of LPL mRNA expression can be estimated.
The test herein was performed as follows: Using a plasmid for the luciferase assay manufactured by Clontech, wherein human LPL 5′-UTR (Enerback, S., et al., Mol. Cell. Biol. 12 (10) (1992): 4622-4633) and 3′-UTR (Wion, K. L., et al., Science 235 (1987): 4796, 1638-1641) had been inserted, human-derived liposarcoma cell line SW872 (ATCC Accession No. HTB-92) was transformed to prepare an HTB-92/p387/p383 cell line, which stably expresses luciferase.
This HTB-92/p387/p383 cell line was introduced into a 225 cm^2 culture flask furnished with a culture medium and cultured at 37° C. in the absence of CO2 until reaching confluence. Leibovitz's L-15 culture medium (containing 10% FBS, 1% GlutaMaxII, 10 μg/ml streptomycin, 1 μg/ml puromycin, 250 μg/ml hygromycin B) was used as the culture medium. After reaching confluence, the cells were collected, plated on 384-well plates to have 20000 cells/well, and cultured with 50 μl/well of the culture medium under the same conditions as above (37° C., absence of CO2). After 3 days of culturing, the culture medium was replaced by 50 μl/well phenol-red-free DMEM (containing 10% FBS, 1% GlutaMax, 10 U/ml penicillin, 10 μg/ml streptomycin, 1 μg/ml puromycin, 250 μg/ml hygromycin, 1 μM dexamethasone, 0.5 μM IBMX; differentiation medium), and the cells were cultured for 5 more days at 37° C. in the presence of CO2 to differentiate.
Furthermore, the culture medium was replaced by a 50 μl/well medium containing a compound of the invention (compound prepared in an Example) as a test substance wherein the compound had been conditioned with DMSO to a specific concentration selected from 10^−4 M to 3×10^−10M. The cells were cultured for 5 days at 37° C. in the presence of CO2.
After 5 days of culturing, a luciferase substrate solution (manufactured by Promega Corporation) was introduced to each well in an amount of 30 μl/well. The cells were left to stand 10 minutes at room temperature, and luciferase activities were measured by a luminometer (a microplate scintilltion counter; The Wallac MicroBeta Trilux, manufactured by Perkin Elmer, Inc.).
Cells that had been cultured and differentiated in a differentiation medium prepared by adding 0.1% DMSO to the above-mentioned DMEM medium (differentiation medium) not containing phenol red were used as a control (i.e., cultured and differentiated for 5 days and then stimulated for 5 days). The luciferase activity of these control cells were measured as above. The EC50 value (the concentration of test substance that can increase the amount of LPL mRNA expression over the control by 50%, unit: M) was calculated based on the straight line obtained by plotting the results of the tests performed using the test substances at varying concentrations. The maximum induction (Max. Ind. values) was calculated according to the following equation: Max. Ind. Value=Lt/Lc wherein Lt represents the maximum luciferase activity occurred in response to test substance stimulation; and Lc represents the value indicating the luciferase activity of the control.

SMILES: COc1cc(-c2cn3ccccc3n2)ccc1OCc1ccccc1F [Example 4]
- maximal fold induction (human LPL mRNA): 1.7
- EC50 (human LPL mRNA): 2 µM
- melting point: 115 to 117 °C

SMILES: COc1cc(-c2cn3ccccc3n2)ccc1OCc1cccc(F)c1 [Example 5]
- maximal fold induction (human LPL mRNA): 1.6
- EC50 (human LPL mRNA): 3.6 µM
- melting point: 117 to 118 °C

SMILES: CCOc1cc(-c2cn3ccccc3n2)ccc1OCc1ccc(Cl)cc1 [Example 68]
- melting point: 136 to 137 °C

SMILES: COc1cc(-c2cn3cc(Br)cc(C)c3n2)ccc1OCc1ccc(Cl)cc1 [Example 69]
- melting point: 155 to 156 °C

SMILES: COc1cc(-c2cn3cc(Br)c(C)c(C)c3n2)ccc1OCc1ccc(Cl)cc1 [Example 70]
- melting point: 166 to 167 °C

SMILES: COc1cc(-c2cn3ccccc3n2)ccc1OCC1CC1 [Example 71]
- melting point: 121 to 123 °C

SMILES: c1ccc(Oc2ccc(-c3cn4ccccc4n3)cc2)cc1 [Example 72]
- melting point: 164 to 165 °C

SMILES: COc1cc(-c2cn3cccc(C)c3n2)ccc1OCc1ccc(Cl)cc1 [Example 73]
- melting point: 132 to 133 °C

SMILES: COc1cc(-c2cn3cccc(C)c3n2)ccc1OCc1ccc(C#N)cc1 [Example 74]
- melting point: 144 to 146 °C

SMILES: COc1cc(-c2cn3cccc(OCc4ccccc4)c3n2)ccc1OCc1ccc(Cl)cc1 [Example 75]
- melting point: 164 to 166 °C

SMILES: COc1cc(-c2nc3ccccc3[nH]2)ccc1OCc1ccccc1 [Example 76, 2-(4-benzyloxy-3-methoxyphenyl)benzimidazole]
- melting point: 219 to 221 °C

SMILES: COc1cc(-c2nc3ccccc3[nH]2)ccc1OCc1ccc(Cl)cc1 [Example 77]
- melting point: 204 to 206 °C

SMILES: COc1cc(-c2nc3ccccc3s2)ccc1OCc1ccccc1 [Example 78, 2-(4-benzyloxy-3-methoxyphenyl)benzothiazole]
- melting point: 108 to 109 °C

SMILES: COc1cc(-c2c[nH]c(-c3ccccc3)n2)ccc1OCc1ccccc1 [Example 79]
- melting point: 190 to 192 °C

SMILES: COc1cc(-c2cn3cc(Cl)cc(Cl)c3n2)ccc1OCc1ccc(Cl)cc1 [Example 80]
- melting point: 162 to 163 °C

SMILES: COc1cc(-c2cn3cc(Cl)cc(Cl)c3n2)ccc1OCc1ccc(C#N)cc1 [Example 81]
- melting point: 187 to 189 °C

SMILES: COc1cc(-c2cn3cccc(C)c3n2)ccc1OCc1ccc(Br)cc1F [Example 82]
- melting point: 122 to 124 °C

SMILES: COc1cc(-c2cn3cc(C)ccc3n2)ccc1OCc1ccc(Br)cc1F [Example 83]
- melting point: 147 to 148 °C

SMILES: COc1cc(-c2cn3ccsc3n2)ccc1OCc1ccc(Br)cc1F [Example 84]
- melting point: 109 to 111 °C

SMILES: COc1cc(-c2cn3cccc(OCc4ccccc4)c3n2)ccc1OCc1ccc(C#N)cc1 [Example 86]
- melting point: 169 to 170 °C

SMILES: COc1cc(-c2cn3cccc(OCc4ccccc4)c3n2)ccc1OCc1ccc(Br)cc1F [Example 87]
- melting point: 108 to 109 °C

SMILES: COc1cc(-c2cn3cccc(OC)c3n2)ccc1OCc1ccccc1 [Example 88]
- melting point: 189 to 191 °C

SMILES: COc1cc(-c2cn3cccc(OC)c3n2)ccc1OCc1ccc(Cl)cc1 [Example 89]
- melting point: 132 to 134 °C

SMILES: COc1cc(-c2cn3cccc(O)c3n2)ccc1OCc1ccc(Cl)cc1 [Example 90]
- melting point: 220 to 222 °C

SMILES: COc1cc(-c2cn3ccccc3n2)ccc1OCc1ccc(Cl)cc1F [Example 91]
- melting point: 119 to 120 °C

SMILES: COc1cc(-c2cn3ccccc3n2)ccc1OCc1ccc(Cl)cc1Cl [Example 92]
- melting point: 138 to 139 °C

SMILES: COc1cc(-c2cn3ccccc3n2)ccc1OCc1ccc(F)cc1F [Example 93]
- melting point: 137 to 138 °C

SMILES: COc1cc(-c2cn3ccccc3n2)ccc1OCc1cc(F)ccc1F [Example 94]
- melting point: 115 to 117 °C

SMILES: COc1cc(-c2cn3cc(Br)ccc3n2)ccc1OCc1ccc(Cl)cc1 [Example 96]
- melting point: 178 to 180 °C

SMILES: COc1cc(-c2cn3cc(Br)ccc3n2)ccc1OCc1ccc(C#N)cc1 [Example 97]
- melting point: 165 to 166 °C

SMILES: COc1cc(-c2cn3cc(Br)cc(C)c3n2)ccc1OCc1ccccc1 [Example 98]
- melting point: 164 to 165 °C

SMILES: COc1cc(-c2cn3cc(Br)cc(C)c3n2)ccc1OCc1ccc(C#N)cc1 [Example 99]
- melting point: 177 to 178 °C

SMILES: COc1cc(-c2cn3cc(Br)c(C)c(C)c3n2)ccc1OCc1ccccc1 [Example 100]
- melting point: 158 to 160 °C

SMILES: COc1cc(-c2cn3cc(Br)c(C)c(C)c3n2)ccc1OCc1ccc(C#N)cc1 [Example 101]
- melting point: 180 to 181 °C

SMILES: c1ccc(-c2cc3cc(-c4cn5ccccc5n4)ccc3o2)cc1 [Example 103]
- maximal fold induction (human LPL mRNA): 1.9
- EC50 (human LPL mRNA): 7.4 µM
- melting point: 239.5 to 241 °C

SMILES: COc1cc(-c2cn3ccccc3n2)ccc1OCc1c(F)cccc1F [Example 104]
- melting point: 136 to 137 °C

SMILES: COc1cc(-c2cnc3ccccn23)ccc1OCc1ccc(C#N)cc1 [Example 108]
- melting point: 148 to 149 °C

SMILES: COc1cc(-c2cnc3ccccn23)ccc1OCc1ccc(Cl)cc1 [Example 109]
- maximal fold induction (human LPL mRNA): 1.5
- EC50 (human LPL mRNA): 3 µM

SMILES: COc1cc(-c2cn3ccccc3n2)ccc1Oc1ccc(Cl)cc1 [Example 114]
- maximal fold induction (human LPL mRNA): 1.5
- EC50 (human LPL mRNA): 7.2 µM
- melting point: 148 to 149 °C

SMILES: COc1cc(-c2nc3ccccn3c2Cl)ccc1Oc1ccccc1 [Example 115]
- melting point: 108 to 109 °C

SMILES: COc1cc(-c2cccc3nccn23)ccc1OCc1ccccc1 [Example 116]
- melting point: 164 to 166 °C

SMILES: COc1cc(-c2cnc3ccccn23)ccc1OCc1ccc(Cl)c(Cl)c1 [Example 117]
- maximal fold induction (human LPL mRNA): 2.2
- EC50 (human LPL mRNA): 3.3 µM

SMILES: COc1cc(-c2cccc3nccn23)ccc1OCc1ccc(C#N)cc1 [Example 120]
- melting point: 155 to 157 °C

SMILES: COc1cc(-c2cnc3ccccn23)ccc1OCc1ccc(C(F)(F)F)cc1 [Example 122]
- melting point: 133 to 135 °C

SMILES: COc1cc(-c2cnc3ccccn23)ccc1O[C@H](C)c1ccccc1 [Example 132]
- maximal fold induction (human LPL mRNA): 1.7
- EC50 (human LPL mRNA): 6.2 µM

SMILES: COc1cc(-c2cnc3ccccn23)ccc1OCc1ccc(F)cc1 [Example 133]
- melting point: 118 to 119 °C

SMILES: COc1cc(-c2cn3ccccc3n2)ccc1O[C@@H](C)c1ccccc1 [Example 134]
- maximal fold induction (human LPL mRNA): 1.7
- EC50 (human LPL mRNA): 6.4 µM
- melting point: 149 to 150 °C

SMILES: COc1cc(-c2cnc3ccccn23)ccc1OC(C)c1ccccc1 (centres unmarked) [Example 135]
- maximal fold induction (human LPL mRNA): 1.8
- EC50 (human LPL mRNA): 5.2 µM
- melting point: 113 to 113.5 °C

SMILES: COc1cc(-c2cccc3nccn23)ccc1O [Example 137]
- melting point: 177 to 178 °C

SMILES: COc1cc(-c2cn3ccccc3n2)ccc1Oc1ccccc1 [Example 138]
- maximal fold induction (human LPL mRNA): 2
- EC50 (human LPL mRNA): 2 µM
- melting point: 95 to 97 °C

SMILES: CCO[PH](=O)OCc1ccc(C(=O)Nc2ccc(Br)cc2C#N)cc1 (centres unmarked) [ethyl 4-[(4-bromo-2-cyanophenyl)carbamoyl]benzyl phosphonate, reference compound]
- maximal fold induction (human LPL mRNA): ~1.2
